Assay results taken from PMC7216583 (Parasites & Vectors, 2020).
Where a name gives a salt, the structure may show the parent alone. Read-outs that look alike come from different tables or passages of the source.

Key:
HSP90α = conditions: read-out: IC50 HSP90α; ref library vendor description; cited from earlier work
[1] = system: Toxoplasma gondii RH-2F tachyzoites; test: microbe, parasite or virus in culture; conditions: 72 h
[2] = target: angiotensin II type 1 (AT1) receptor; set-up: method as in vendor brief description; conditions: ref vendor brief description; cited from earlier work
RGS4 = system: RGS4; set-up: method as in vendor brief description; conditions: ref vendor brief description; cited from earlier work
GSK-3α = system: GSK-3α; set-up: method as in vendor brief description; conditions: ref vendor brief description; cited from earlier work
matriptase = target: matriptase; set-up: method as in vendor brief description; conditions: ref vendor brief description; cited from earlier work
[3] = system: human neutrophil elastase; set-up: method as in vendor brief description; conditions: ref vendor brief description; cited from earlier work
[4] = target: HIV reverse transcriptase; set-up: method as in vendor brief description; conditions: ref vendor brief description; cited from earlier work
CETP = system: CETP; set-up: method as in vendor brief description; conditions: ref vendor brief description; cited from earlier work
IKK-2 = system: IKK-2; set-up: method as in vendor brief description; conditions: ref vendor brief description; cited from earlier work
IKK complex = system: IKK complex; set-up: method as in vendor brief description; conditions: ref vendor brief description; cited from earlier work
IKK-1 = system: IKK-1; set-up: method as in vendor brief description; conditions: ref vendor brief description; cited from earlier work
in vitro = conditions: human; for viability at 72 h: Host viability (%) mean
[5] = target: HIF-1α prolyl hydroxylase-2 (PHD2); set-up: method as in vendor brief description; conditions: ref vendor brief description; cited from earlier work
β-adrenoceptor = target: β-adrenoceptor; set-up: method as in vendor brief description; conditions: ref vendor brief description; cited from earlier work
LPA3 [6] = target: LPA3; set-up: method as in vendor brief description; conditions: ref vendor brief description; read-out: Ki LPA3-induced inositol phosphate production; cited from earlier work
LPA1 [7] = target: LPA1; set-up: method as in vendor brief description; conditions: ref vendor brief description; read-out: Ki LPA1-induced inositol phosphate production; cited from earlier work
LPA1 [8] = target: LPA1; set-up: method as in library vendor description; conditions: ref library vendor description; cited from earlier work
LPA2 = target: LPA2; set-up: method as in library vendor description; conditions: ref library vendor description; cited from earlier work
LPA3 [9] = target: LPA3; set-up: method as in library vendor description; conditions: ref library vendor description; cited from earlier work
noradrenaline α2C = system: noradrenaline α2C; set-up: method as in vendor brief description; conditions: ref vendor brief description; cited from earlier work
dopamine D2 = system: dopamine D2; set-up: method as in vendor brief description; conditions: ref vendor brief description; cited from earlier work
5-HT7 receptor = target: 5-HT7 receptor; set-up: method as in vendor brief description; conditions: ref vendor brief description; cited from earlier work
5-HT1A = system: 5-HT1A; set-up: method as in vendor brief description; conditions: ref vendor brief description; cited from earlier work
5-HT2A = system: 5-HT2A; set-up: method as in vendor brief description; conditions: ref vendor brief description; cited from earlier work
NOD1 = system: NOD1; set-up: method as in vendor brief description; conditions: ref vendor brief description; cited from earlier work
V1 receptor = target: V1 receptor; set-up: method as in vendor brief description; conditions: ref vendor brief description; cited from earlier work
V2 receptor = target: V2 receptor; set-up: method as in vendor brief description; conditions: ref vendor brief description; cited from earlier work
Mdm2 = system: Mdm2; set-up: method as in library vendor description; conditions: ref library vendor description; cited from earlier work
PARP2 = system: PARP2; set-up: method as in library vendor description; conditions: ref library vendor description; cited from earlier work
VEGFR-2 = system: VEGFR-2; set-up: method as in vendor brief description; conditions: ref vendor brief description; cited from earlier work
Yes = system: Yes; set-up: method as in vendor brief description; conditions: ref vendor brief description; cited from earlier work
ChK2 = system: ChK2; set-up: method as in vendor brief description; conditions: ref vendor brief description; cited from earlier work
Fms = system: Fms; set-up: method as in vendor brief description; conditions: ref vendor brief description; cited from earlier work
CYP3A4 (P450) = system: CYP3A4 (P450); set-up: method as in vendor brief description; conditions: ref vendor brief description; cited from earlier work
5-HT4a = target: 5-HT4a; set-up: method as in vendor brief description; conditions: ref vendor brief description; cited from earlier work
5-HT4b = target: 5-HT4b; set-up: method as in vendor brief description; conditions: ref vendor brief description; cited from earlier work
Factor Xa = system: Factor Xa; set-up: method as in vendor brief description; conditions: ref vendor brief description; cited from earlier work
PAFR = target: PAFR; set-up: method as in vendor brief description; conditions: ref vendor brief description; cited from earlier work
[10] = target: histamine 1 (H1) receptor; set-up: method as in vendor brief description; conditions: ref vendor brief description; cited from earlier work
GSK-3β = system: GSK-3β; set-up: method as in vendor brief description; conditions: ref vendor brief description; cited from earlier work
CA XII = system: CA XII; set-up: method as in vendor brief description; conditions: ref vendor brief description; cited from earlier work
CA IX = system: CA IX; set-up: method as in vendor brief description; conditions: ref vendor brief description; cited from earlier work
Src = system: Src; set-up: method as in vendor brief description; conditions: ref vendor brief description; cited from earlier work
Abl = system: Abl; set-up: method as in vendor brief description; conditions: ref vendor brief description; read-out: IC50 Abl; cited from earlier work
VEGFR1 = system: VEGFR1; set-up: method as in vendor brief description; conditions: ref vendor brief description; cited from earlier work
[11] = read-out: Parasite inhibition (%) mean, preliminary screen, mean
[12] = read-out: Parasite inhibition (%) mean, preliminary screen of compound library, mean

## CCNC(=O)c1noc(-c2cc(C(C)C)c(O)cc2O)c1-c1ccc(CN2CCOCC2)cc1 [AUY922 (NVP-AUY922)]
HSP90α
  IC50: […]
[1]; [11]
  inhibition of growth at 5 µM: 8.2%

## CCOc1nc2cccc(C(=O)O)c2n1Cc1ccc(-c2ccccc2-c2nc(=O)o[nH]2)cc1 [Azilsartan (TAK-536)]
[1]; [12]
  inhibition of growth at 5 µM: 4.6%
[2]
  IC50: 0.0026 µM

## Cc1ccc(-n2sc(=O)n(Cc3ccc(F)cc3)c2=O)cc1 [CCG 50014]
RGS4
  IC50: 0.03 µM
[1]; [12]
  inhibition of growth at 5 µM: 1.4%

## Cc1c[nH]c(-c2cnc(NCCNc3ccc(C#N)cn3)nc2-c2ccc(Cl)cc2Cl)n1 [CHIR-99021 (CT99021) HCl]
GSK-3α
  IC50: 0.01 µM
[1]; [12]
  inhibition of growth at 5 µM: 43.9%

## CN(C)C(=O)COC(=O)Cc1ccc(OC(=O)c2ccc(NC(=N)N)cc2)cc1 [Camostat Mesilate (FOY-305)]
matriptase
  IC50: 0.5 µM
[3]
  IC50: 0.2 µM
[1]; [12]
  inhibition of growth at 5 µM: 2.5%

## Cc1cc(C)c(Nc2ccnc(Nc3ccc(C#N)cc3)n2)c(C)c1 [Dapivirine]
[4]
  IC50: 0.024 µM
[1]; [12]
  inhibition of growth at 5 µM: 0.8%

## Cc1cc(C)c2c(c1)[C@@H](N(Cc1cc(C(F)(F)F)cc(C(F)(F)F)c1)c1nnn(C)n1)CCCN2C[C@H]1CC[C@H](C(=O)O)CC1 [Evacetrapib (LY2484595)]
[1]; [12]
  inhibition of growth at 5 µM: 22.6%
CETP
  IC50: 0.0055 µM

## O=C(c1ccc(Nc2nccc(-c3cc4ccccc4s3)n2)cc1)N1CCC(N2CCCC2)CC1 [IKK-16]
IKK-2
  IC50: 0.04 µM
IKK complex
  IC50: 0.07 µM
IKK-1
  IC50: 0.2 µM
[1]; [12]
  inhibition of growth at 5 µM: 99.8%
In vitro
  viability at 72 h: 10.7%

## O=C(O)CNC(=O)c1c(O)c2ccccc2n(Cc2ccccc2)c1=O [IOX2]
[5]
  IC50: 0.021 µM
[1]; [12]
  inhibition of growth at 5 µM: 32.8%

## CCc1cc2c(cc1CC)CC(NC[C@H](O)c1ccc(O)c3[nH]c(=O)ccc13)C2 [Indacaterol Maleate]
[1]; [12]
  inhibition of growth at 5 µM: -8.9%
β-adrenoceptor
  pKi β-adrenoceptor: Indacaterol is an ultra-long-acting β-adrenoceptor agonist with pKi of 7.36.

## Cc1noc(-c2ccc(CSCCC(=O)O)cc2)c1NC(=O)OC(C)c1ccccc1Cl (stereo not drawn) [Ki16425]
LPA3 [6]
  Ki: 0.93 µM
LPA1 [7]
  Ki: 0.34 µM
LPA1 [8]
  Ki: 0.34 µM
LPA2
  Ki: 6.5 µM
[1]; [11]
  inhibition of growth at 5 µM: -25.5%
LPA3 [9]
  Ki: 0.93 µM

## O=C1[C@@H]2[C@H]3CC[C@H](C3)[C@@H]2C(=O)N1C[C@@H]1CCCC[C@H]1CN1CCN(c2nsc3ccccc23)CC1 [Lurasidone HCl, reference compound]
Noradrenaline α2C
  IC50: 0.0108 µM
Dopamine D2
  IC50: […]
5-HT7 receptor
  IC50: 0.000495 µM
[1]; read-out: Parasite inhibition (%) Mean ± SD
  inhibition at 5 µM: 80.4 ± 1.5%
In vitro
  viability: 86.9%
  viability at 5 µM: 86.9 ± 1.7%
5-HT1A
  IC50: 0.00675 µM
5-HT2A
  IC50: 0.00203 µM

## Cc1ccc(S(=O)(=O)n2c(N)nc3ccccc32)cc1 [ML130]
NOD1
  IC50: 0.56 µM
[1]; [12]
  inhibition of growth at 5 µM: 3.3%

## Cc1ccccc1C(=O)Nc1ccc(C(=O)N2CCCC(N(C)C)c3ccccc32)cc1 (stereo not drawn) [Mozavaptan]
V1 receptor
  IC50: 1.2 µM
V2 receptor
  IC50: 0.014 µM
[1]; [12]
  inhibition of growth at 5 µM: 3.1%

## COc1ccc(C2=N[C@@H](c3ccc(Cl)cc3)[C@@H](c3ccc(Cl)cc3)N2C(=O)N2CCNC(=O)C2)c(OC(C)C)c1 [Nutlin-3]
[1]; [11]
  inhibition of growth at 5 µM: -1.5%
Mdm2
  IC50: […]

## O=C(c1cc(Cc2n[nH]c(=O)c3ccccc23)ccc1F)N1CCN(C(=O)C2CC2)CC1 [Olaparib (AZD2281)]
PARP2
  IC50: 0.001 µM
[1]; read-out: Parasite inhibition (%) mean
  inhibition of growth at 5 µM: 28.2%

## Cn1cc(-c2[nH]c3cc(NC(=O)[C@H](N)C4CCCCC4)cc4c3c2C=NNC4=O)cn1 [PF 477736]
VEGFR-2
  IC50: 0.008 µM
Yes
  IC50: 0.014 µM
[1]; [12]
  inhibition of growth at 5 µM: -0.5%
ChK2
  IC50: 0.047 µM
Fms
  IC50: 0.01 µM

## Cc1ccc(-c2c(-c3nn(C)c4ncnc(N5CC[C@H](N6CCCCC6)C5)c34)cnn2C)cc1 [PF-4981517]
CYP3A4 (P450)
  IC50: 0.03 µM
[1]; [12]
  inhibition of growth at 5 µM: -8.9%

## COCCCN1CCC(NC(=O)c2cc(Cl)c(N)c3c2OCC3)CC1 [Prucalopride]
5-HT4a
  Ki: 0.0025 µM
5-HT4b
  Ki: 0.008 µM
[1]; [12]
  inhibition of growth at 5 µM: -7.6%

## O=C(NCC1CN(c2ccc(N3CCOCC3=O)cc2)C(=O)O1)c1ccc(Cl)s1 (stereo not drawn) [Rivaroxaban (Xarelto)]
Factor Xa
  IC50: […]
[1]; [12]
  inhibition of growth at 5 µM: 0.4%

## Cc1cncc(CN2CCC(=C3c4ccc(Cl)cc4CCc4cccnc43)CC2)c1 [Rupatadine Fumarate]
PAFR
  Ki: 0.55 µM
[10]
  Ki: 0.102 µM
[1]; [12]
  inhibition of growth at 5 µM: 0.2%

## Cn1sc(=O)n(Cc2ccccc2)c1=O [TDZD-8]
[1]; [12]
  inhibition of growth at 5 µM: 12.8%
GSK-3β
  IC50: 2 µM

## NS(=O)(=O)c1ccc(NC(=O)Nc2ccc(F)cc2)cc1 [U-104]
CA XII
  IC50: […]
CA IX
  IC50: […]
[1]; [12]
  inhibition of growth at 5 µM: 5%

## COc1cc2ncnc(Nc3ccc(Cl)cc3F)c2cc1OC [ZM 306416]
Src
  IC50: […]
Abl
  IC50: 1.3 µM
[1]; [12]
  inhibition of growth at 5 µM: 70.2%
In vitro; preliminary screen of compound library, mean
  viability at 72 h: 76.6%
VEGFR1
  IC50: […]
